Assay results reported in patent US20100041646A1, “Phenylene-Bis-Oxazolidine Derivatives and Their Use as Anticoagulants” (BAYER HEALTHCARE AG, priority 2005, published 2010).

target: human factor Xa (FXa) (Homo sapiens, UniProt P00742); assay: Determination of the factor Xa inhibition (chromogenic substrate); assay type: biochemical; conditions: human FXa 0.5 nmol/l, 150 μmol/l Pefachrome FXa, 25° C., extinction at 405 nm
Experimental: The enzymatic inhibition of human factor Xa (FXa) is measured using the conversion of a chromogenic substrate specific for FXa. Factor Xa cleaves p-nitroaniline from the chromogenic substrate. The determinations are carried out in microtiter plates as follows:
The test substances, in various concentrations, are dissolved in DMSO and incubated for 10 minutes at 25° C. with human FXa (0.5 nmol/l dissolved in 50 mmol/l of Tris buffer [C,C,C-tris(hydroxymethyl)aminomethane], 150 mmol/l of NaCl, 0.1% BSA [bovine serum albumin], pH 20=8.3). Pure DMSO is used as control. The chromogenic substrate (150 μmol/l Pefachrome® FXa from Pentapharm) is then added. After an incubation time of 20 minutes at 25° C., the extinction at 405 nm is determined.

Sequence of human factor Xa (FXa) (P00742 235-488 limits assumed): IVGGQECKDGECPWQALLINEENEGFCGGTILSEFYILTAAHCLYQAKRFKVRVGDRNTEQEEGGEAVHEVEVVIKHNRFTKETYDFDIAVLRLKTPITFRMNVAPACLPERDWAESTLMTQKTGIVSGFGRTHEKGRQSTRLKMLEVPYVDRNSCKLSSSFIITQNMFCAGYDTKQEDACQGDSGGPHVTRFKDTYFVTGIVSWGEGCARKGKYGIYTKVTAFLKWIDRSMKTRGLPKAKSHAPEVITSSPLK
Sequence of human factor Xa (FXa) (P00742 41-179 partner limits assumed): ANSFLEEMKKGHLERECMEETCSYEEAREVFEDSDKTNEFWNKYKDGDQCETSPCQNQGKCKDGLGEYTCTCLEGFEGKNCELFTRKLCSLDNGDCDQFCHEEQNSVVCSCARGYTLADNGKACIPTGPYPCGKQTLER

Row | IC50 [nM] | SMILES
1 | 1.1 | N=C1OCCN1c1ccc(N2C[C@H](CNC(=O)c3ccc(Cl)s3)OC2=O)cc1 [Example 1, 5-Chloro-N-({(5S)-3-[4-(2-imino-1,3-oxazolidin-3-yl)phenyl]-2-oxo-1,3-oxazolidin-5-yl}methyl)thiophene-2-carboxamide]
2 | 3.1 | N=C1OCCCN1c1ccc(N2C[C@H](CNC(=O)c3ccc(Cl)s3)OC2=O)cc1 [Example 5, 5-Chloro-N-({(5S)-3-[4-(2-imino-1,3-oxazinan-3-yl)phenyl]-2-oxo-1,3-oxazolidin-5-yl}methyl)thiophene-2-carboxamide methanesulfonate]
3 | 16 | N#CN=C1OCCN1c1ccc(N2C[C@H](CNC(=O)c3ccc(Cl)s3)OC2=O)cc1 [Example 6, 5-Chloro-N-[((5S)-3-{4-[2-(cyanoimino)-1,3-oxazolidin-3-yl]phenyl}-2-oxo-1,3-oxazolidin-5-yl)methyl]thiophene-2-carboxamide]
